Measurements: ChEMBL document CHEMBL1777731, “Design and synthesis of potent HIV-1 protease inhibitors incorporating hydroxyprolinamides as novel P2 ligands” (Bioorg Med Chem Lett, 2011)

Test system: HIV-1 protease (Human immunodeficiency virus 1)
Assay: Inhibition of wild type HIV1 protease expressed in Escherichia coli by fluorometric assay

| IC50 [µM] | SMILES |
| --- | --- |
| 0.0166 | CC(C)CN(C[C@@H](O)[C@H](Cc1ccccc1)NC(=O)O[C@H]1CN[C@H](C(N)=O)C1)S(=O)(=O)c1ccc(N)cc1 |
| 10.1 | CC(C)CN(C[C@@H](O)[C@H](Cc1ccccc1)NC(=O)O[C@H]1CN[C@H](C(=O)NC(C)(C)C)C1)S(=O)(=O)c1ccc(N)cc1 |
| 14.8 | CC(C)CN(C[C@@H](O)[C@H](Cc1ccccc1)NC(=O)O[C@H]1CN[C@H](C(=O)Nc2ccccc2)C1)S(=O)(=O)c1ccc(N)cc1 |
| 0.139 | Cc1ccc(NC(=O)[C@@H]2C[C@@H](OC(=O)N[C@@H](Cc3ccccc3)[C@H](O)CN(CC(C)C)S(=O)(=O)c3ccc(N)cc3)CN2)cc1 |

Second part, the compound before the results:

| SMILES | IC50 [µM] |
| --- | --- |
| COc1ccc(NC(=O)[C@@H]2C[C@@H](OC(=O)N[C@@H](Cc3ccccc3)[C@H](O)CN(CC(C)C)S(=O)(=O)c3ccc(N)cc3)CN2)cc1 | 0.0154 |
| COc1ccccc1NC(=O)[C@@H]1C[C@@H](OC(=O)N[C@@H](Cc2ccccc2)[C@H](O)CN(CC(C)C)S(=O)(=O)c2ccc(N)cc2)CN1 | 13 |
| COc1cccc(NC(=O)[C@@H]2C[C@@H](OC(=O)N[C@@H](Cc3ccccc3)[C@H](O)CN(CC(C)C)S(=O)(=O)c3ccc(N)cc3)CN2)c1 | 15.2 |
| COc1ccc(OC)c(NC(=O)[C@@H]2C[C@@H](OC(=O)N[C@@H](Cc3ccccc3)[C@H](O)CN(CC(C)C)S(=O)(=O)c3ccc(N)cc3)CN2)c1 | 11.8 |
| COc1cc(NC(=O)[C@@H]2C[C@@H](OC(=O)N[C@@H](Cc3ccccc3)[C@H](O)CN(CC(C)C)S(=O)(=O)c3ccc(N)cc3)CN2)cc(OC)c1OC | 10.1 |
| CC(C)(C)NC(=O)[C@@H]1CN(Cc2cccnc2)CCN1C[C@@H](O)C[C@@H](Cc1ccccc1)C(=O)N[C@H]1c2ccccc2C[C@H]1O | < 0.01 |
